Results reported in paper PMC6478789, “A chemical toolbox for the study of bromodomains and epigenetic signaling” (Nature Communications, 2019).

Tests used:
Assay in all cases: Methyl transferase scintillation proximity assay
Format in all cases: biochemical
Settings in all cases: average of two measurements; for inhibition at 10 µM: read-out: MTases Inhibition (%)
GLP = biological target: T1, GLP (Homo sapiens, UniProt Q9H9B1)
T1 construct: purchased DiscoverX BROMOscan (bromodomains); SGC in-house methyltransferase panel
T1 sequence (Q9H9B1 1-1298): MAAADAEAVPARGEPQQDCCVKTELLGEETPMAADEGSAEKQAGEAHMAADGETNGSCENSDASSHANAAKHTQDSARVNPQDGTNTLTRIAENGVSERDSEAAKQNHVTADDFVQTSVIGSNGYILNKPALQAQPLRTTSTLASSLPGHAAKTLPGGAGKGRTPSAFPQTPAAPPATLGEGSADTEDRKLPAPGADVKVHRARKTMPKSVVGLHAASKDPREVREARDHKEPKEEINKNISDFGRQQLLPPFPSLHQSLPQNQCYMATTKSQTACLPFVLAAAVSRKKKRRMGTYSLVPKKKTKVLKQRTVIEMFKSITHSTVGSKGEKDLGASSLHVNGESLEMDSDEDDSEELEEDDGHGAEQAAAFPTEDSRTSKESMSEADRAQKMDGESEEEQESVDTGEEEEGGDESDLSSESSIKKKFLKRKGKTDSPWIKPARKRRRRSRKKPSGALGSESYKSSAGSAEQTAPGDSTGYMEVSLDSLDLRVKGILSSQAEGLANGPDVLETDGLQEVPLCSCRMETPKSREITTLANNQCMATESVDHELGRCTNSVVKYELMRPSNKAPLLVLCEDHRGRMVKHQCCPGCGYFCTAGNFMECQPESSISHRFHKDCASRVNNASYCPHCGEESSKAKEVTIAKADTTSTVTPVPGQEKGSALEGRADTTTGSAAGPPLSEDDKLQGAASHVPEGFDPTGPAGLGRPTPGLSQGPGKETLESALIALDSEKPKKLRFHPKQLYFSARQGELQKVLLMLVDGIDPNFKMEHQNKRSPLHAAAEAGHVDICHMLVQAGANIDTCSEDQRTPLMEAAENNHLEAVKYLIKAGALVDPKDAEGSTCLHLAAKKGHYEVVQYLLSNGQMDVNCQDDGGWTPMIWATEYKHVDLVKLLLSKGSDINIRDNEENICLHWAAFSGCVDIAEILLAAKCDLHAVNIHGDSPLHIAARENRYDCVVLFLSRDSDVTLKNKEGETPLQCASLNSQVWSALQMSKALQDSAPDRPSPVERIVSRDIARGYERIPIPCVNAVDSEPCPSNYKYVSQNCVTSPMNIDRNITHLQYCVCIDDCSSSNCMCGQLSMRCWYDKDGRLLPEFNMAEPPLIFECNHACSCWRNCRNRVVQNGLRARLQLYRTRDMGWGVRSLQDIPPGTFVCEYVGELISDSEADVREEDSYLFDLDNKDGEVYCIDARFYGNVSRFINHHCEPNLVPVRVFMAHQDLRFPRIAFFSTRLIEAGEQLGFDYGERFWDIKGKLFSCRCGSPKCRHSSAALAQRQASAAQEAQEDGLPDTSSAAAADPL
In short: (§1)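 Read-out is scintillation counts (CPM) from biotinylated substrate carrying a ^3H-methyl group, normalised to no-compound (100%) and no-enzyme (0%) wells. Reactions used ^3H-SAM and substrate close to each enzyme's apparent Km.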

PRMT1 = biological target: T2, PRMT1 (Homo sapiens, UniProt Q99873)
T2 construct: purchased DiscoverX BROMOscan (bromodomains); SGC in-house methyltransferase panel
T2 sequence (Q99873 whole entry): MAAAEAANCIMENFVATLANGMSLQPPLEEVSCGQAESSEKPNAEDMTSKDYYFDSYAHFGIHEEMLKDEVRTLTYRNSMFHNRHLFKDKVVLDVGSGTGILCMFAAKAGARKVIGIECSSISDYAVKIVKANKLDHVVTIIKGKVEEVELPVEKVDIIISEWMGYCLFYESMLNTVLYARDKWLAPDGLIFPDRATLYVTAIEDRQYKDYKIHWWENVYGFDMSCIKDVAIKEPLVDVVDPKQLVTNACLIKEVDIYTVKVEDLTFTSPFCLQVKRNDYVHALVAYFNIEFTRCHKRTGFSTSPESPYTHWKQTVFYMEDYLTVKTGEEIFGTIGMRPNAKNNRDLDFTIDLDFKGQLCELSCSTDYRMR
In short: as §1

PRMT4 = biological target: T3, PRMT4 (Homo sapiens, UniProt Q86X55)
T3 construct: purchased DiscoverX BROMOscan (bromodomains); SGC in-house methyltransferase panel
T3 sequence (Q86X55 1-608): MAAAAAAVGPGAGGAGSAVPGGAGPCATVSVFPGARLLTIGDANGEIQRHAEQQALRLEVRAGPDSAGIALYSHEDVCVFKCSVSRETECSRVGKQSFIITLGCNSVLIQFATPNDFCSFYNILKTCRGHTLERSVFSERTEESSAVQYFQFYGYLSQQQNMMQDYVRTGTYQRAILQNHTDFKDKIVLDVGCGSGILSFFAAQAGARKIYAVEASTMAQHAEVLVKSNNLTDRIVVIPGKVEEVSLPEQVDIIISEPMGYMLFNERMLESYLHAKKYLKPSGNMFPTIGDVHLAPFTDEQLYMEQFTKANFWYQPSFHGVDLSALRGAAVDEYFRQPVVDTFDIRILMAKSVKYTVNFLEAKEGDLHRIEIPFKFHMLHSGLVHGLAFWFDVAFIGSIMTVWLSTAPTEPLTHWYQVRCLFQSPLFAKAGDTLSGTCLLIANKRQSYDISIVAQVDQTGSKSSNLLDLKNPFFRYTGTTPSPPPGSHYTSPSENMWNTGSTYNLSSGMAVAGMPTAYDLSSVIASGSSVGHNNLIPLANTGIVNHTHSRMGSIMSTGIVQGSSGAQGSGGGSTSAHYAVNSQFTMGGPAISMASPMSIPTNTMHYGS
In short: as §1

PRMT6 = biological target: T4, PRMT6 (Homo sapiens, UniProt Q96LA8)
T4 construct: purchased DiscoverX BROMOscan (bromodomains); SGC in-house methyltransferase panel
T4 sequence (Q96LA8 whole entry): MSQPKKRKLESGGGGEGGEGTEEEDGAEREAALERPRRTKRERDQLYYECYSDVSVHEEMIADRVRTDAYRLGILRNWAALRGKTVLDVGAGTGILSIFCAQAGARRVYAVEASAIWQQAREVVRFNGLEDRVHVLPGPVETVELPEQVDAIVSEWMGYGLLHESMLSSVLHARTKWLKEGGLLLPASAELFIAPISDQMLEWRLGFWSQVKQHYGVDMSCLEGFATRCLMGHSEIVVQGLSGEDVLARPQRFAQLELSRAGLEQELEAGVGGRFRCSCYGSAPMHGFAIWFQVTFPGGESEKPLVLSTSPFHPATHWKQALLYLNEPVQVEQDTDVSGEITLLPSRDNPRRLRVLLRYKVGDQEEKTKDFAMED
In short: as §1

Compound | inhibition at 10 µM (GLP) | inhibition at 10 µM (PRMT1) | inhibition at 10 µM (PRMT4) | inhibition at 10 µM (PRMT6) | MTases Inhibition (%) (GLP; 10µM) | MTases Inhibition (%) (PRMT1; 10µM) | MTases Inhibition (%) (PRMT4; 10µM) | MTases Inhibition (%) (PRMT6; 10µM)
Cc1c(NC(=O)c2cc(C(N)=O)nc3cc(F)ccc23)c(C(F)(F)F)nn1Cc1ccc(C(C)(C)C)cc1 [BAY-588] | 2% | 0% | 9% | 4% | – | – | – | –
COc1cc(Cl)c(C(=O)N[C@@H](CN[C@H]2CC[C@@H](N)CC2)Cc2ccc(C#N)cc2)cc1-c1ccc(CN[C@H](C)c2ccc(C)cc2)o1 [BAY-850] | 2% | 15% | 25% | 13% | – | – | – | –
Cc1c(NC(=O)c2cc(C(N)=O)nc3cc(F)ccc23)c(C(F)(F)F)nn1Cc1ccc(C#N)cc1 [BAY-876] | 0% | 2% | 1% | -3% | – | – | – | –
CN1C[C@H](Nc2cnn(C)c(=O)c2Br)C[C@H](c2ccccc2)C1 [GSK4027] | 2% | 4% | -2% | 6% | – | – | – | –
COc1ccccc1C(=O)Nc1cc2c(cc1N1CCNC[C@H]1C)n(C)c(=O)n2C [GSK6853] | – | – | – | – | 3% | -7% | 2% | 5%
CO[C@H]1CNC[C@@H](OCC2CCC(F)(F)CC2)[C@@H]1Nc1ncc(-c2cncc(C)c2)c2cc(C)c(=O)[nH]c12 [GSK8814] | 2% | 3% | 1% | 0% | – | – | – | –
Cc1nnc2c3ccccc3c(N[C@@H](C)[C@H](c3ccccc3)N(C)C)nn12 [L-Moses] | 2% | -2% | 6% | 5% | – | – | – | –
CN(C)CCCOc1ccc(-c2cc(NCCCn3cccn3)nc(S(C)(=O)=O)n2)cc1 [TP-238] | 1% | 0% | 3% | 6% | – | – | – | –
